Patent US7205411B2, “Aminopyridine derivatives as mGluR5 antagonists” (Addex Pharmaceuticals SA, priority 2003, dated 2007)
Counter-ions that a name gives are not always drawn.

| melting point | Compound |
| --- | --- |
| 195 °C (dec.) | Cc1ccc(N)c(C#Cc2cccc(Cl)c2)n1.Cl |
| 132.4 to 134 °C | Cc1ccc(N)c(C#Cc2cccc(C#N)c2)n1.Cl |
| 199 to 200 °C (dec.) | Cc1ccc(N)c(C#Cc2cccc(F)c2)n1.Cl [Example 3, (2-(3-Fluoro-phenylethynyl)-6-methyl-pyridin-3-yl)amine hydrochloride] |
| 165 to 166 °C | COc1cccc(C#Cc2nc(C)ccc2N)c1 [Example 4, (2-(3-Methoxy-phenylethynyl)-6-methyl-pyridin-3-yl)amine] |

Second part, the compound before the results:

| Compound | melting point |
| --- | --- |
| Cc1ccc(N)c(C#Cc2ccc(F)cc2)n1.Cl | 122 °C (dec.) |
| Cc1cc(C)c(N)c(C#Cc2cccc(Cl)c2)n1 (as salt: hydrochloride) [Example 13, (2-(3-Chloro-phenylethynyl)-4.6-dimethyl-pyridin-3-yl)amine hydrochloride] | 204 °C |
| Cc1ccc(N)c(C#Cc2cc(F)cc(F)c2)n1.Cl [Example 7, (2-(3,5-Difluoro-phenylethynyl)-6-methyl-pyridin-3-yl)amine hydrochloride] | 212 °C (dec.) |
| Cc1ccc(N)c(C#Cc2cncc(Cl)c2)n1.Cl [Example 10, (2-(5-Chloro-pyridin-3-ylethynyl)-6-methyl-pyridin-3-yl)amine hydrochloride] | 193 °C (dec.) |
